Assays:
Assay type in all cases: cell-based
ER-α [1] = molecular target: T1, ER-α (Homo sapiens, UniProt P03372); experiment: ER-α in Cell Western Assay (ER1D5); conditions: MCF-7 cells, ER1D5 antibody, 4 or 24 hr post compound addition, read-out: ER In-Cell Western Assay (ER1D5); for Emax: MCF7, Max Response; for DC50: IC50
T1 construct: endogenous in cells; host or cells: MCF-7
T1 sequence (P03372 1-595): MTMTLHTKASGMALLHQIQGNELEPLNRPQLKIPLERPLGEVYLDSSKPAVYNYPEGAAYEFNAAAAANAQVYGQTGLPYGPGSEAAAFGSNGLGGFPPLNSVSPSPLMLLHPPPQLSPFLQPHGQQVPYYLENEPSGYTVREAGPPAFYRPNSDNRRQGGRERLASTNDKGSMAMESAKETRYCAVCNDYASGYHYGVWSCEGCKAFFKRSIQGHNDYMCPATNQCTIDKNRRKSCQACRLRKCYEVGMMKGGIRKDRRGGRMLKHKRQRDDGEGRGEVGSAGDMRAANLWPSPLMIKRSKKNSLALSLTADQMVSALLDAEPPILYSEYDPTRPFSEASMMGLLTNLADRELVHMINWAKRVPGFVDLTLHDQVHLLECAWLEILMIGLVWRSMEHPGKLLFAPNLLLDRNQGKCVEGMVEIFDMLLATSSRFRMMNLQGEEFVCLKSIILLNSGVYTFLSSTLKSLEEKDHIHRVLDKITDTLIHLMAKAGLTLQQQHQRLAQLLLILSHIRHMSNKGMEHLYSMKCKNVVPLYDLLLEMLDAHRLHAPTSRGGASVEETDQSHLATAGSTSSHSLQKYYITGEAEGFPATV
Protocol: (§1) MCF-7 cells were adjusted to a concentration of 200,000 cells per mL in RPMI containing 10% charcoal-stripped FBS and 20 mM HEPES. 16 microliters of the cell suspension (3200 cells) was added to each well of a poly-D-lysine 384 well plate, and the cells were incubated overnight to allow the cells to adhere. The following day an eleven point, serial semilog dilution of each compound was added to the cells in 16 μL at a final concentration ranging from 0.3-0.000003 μM. At 4 or 24 hr post compound addition, the cells were fixed (10% formalin in PBS) for 20 minutes. Cells were permeabalized in PBS 0.1% Triton and blocked with LICOR blocking buffer (50 μl/well, 90′). The wells were then incubated overnight at 4° C. with ER1D5 (Santa Cruz Biotechnology) diluted 1:100 in LICOR blocking buffer/0.1% Tween-20. Wells which were treated with blocking buffer with Tween but no antibody were used as a background control. Wells were washed with 0.1% Tween-20/PBS and then incubated in goat anti-mouse IRDye™ 800CW (LICOR Inc.; 1:1000) and DRAQ5 DNA dye (1:2000 for 2 mM stock) diluted in LICOR blocking buffer containing 0.1% Tween-20 and 0.01% SDS for 60 minutes. Cells were washed (50 μl/well, 5′ each) in 0.1% Tween-20/PBS. Plates were scanned on a LICOR Odyssey infrared imaging system. Integrated intensities in the 800 nm channel and 700 nm channel were measured to determine levels of ER and DNA respectively. Percent ER levels were determined as follows: (Integrated intensity 800 nm sample/integrated intensity 700 nm sample)/(Integrated intensity 800 nm untreated cells/integrated intensity 700 nm untreated cells)×100=% ER levels.

MCF-7 cells = experiment: Breast Cancer Cell Viability Assay (MCF7 Viability Assay, CellTiter-Glo); conditions: 5 days' compound exposure; for IC50: Homo sapiens, MCF7, 120 h
Protocol: MCF-7 cells were adjusted to a concentration of 20,000 cells per mL in RPMI containing 10% FBS and 20 mM HEPES. 16 microliters of the cell suspension (320 cells) was added to each well of a 384 well plate, and the cells were incubated overnight to allow the cells to adhere. The following day an eleven point, serial semilog dilution of each compound was added to the cells in 16 μL at a final concentration ranging from 0.3-0.000003 μM. After 5 days' compound exposure, 16 μL of CellTiter-GLo (Promega, Madison Wis.) was added to the cells the relative luminescence units (RLUs) of each well was determined. CellTiter-Glo added to 32 μL of medium without cells was used to obtain a background value. The Percent viability of each sample was determined as follows: (RLU sample-RLU background/RLU untreated cells-RLU background)×100=% viability.

ER-α [2] = molecular target: T1, ER-α; experiment: ER-α in Cell Western Assay (SP1); conditions: MCF-7 cells, SP1 rabbit monoclonal Ab, 4 or 24 hr post compound addition, read-out: ER In-Cell Western Assay (SP1); for Emax: MCF7, Max Response; for DC50: IC50
Protocol: as §1, with “with SP1 rabbit monoclonal Ab (Thermo Scientific)” for “with ER1D5 (Santa Cruz Biotechnology)”, “diluted 1:1000” for “diluted 1:100”, “goat anti-rabbit” for “goat anti-mouse”

Structure (SMILES)	Emax (ER-α [1])	DC50 (ER-α [1])	MCF7 Viability Assay Max Response (MCF-7 cells)	IC50 (MCF-7 cells)	Emax (ER-α [2])	DC50 (ER-α [2])
Oc1ccc(C2Cc3cc(O)ccc3C2c2ccc(OCCN3CCCC3)cc2)cc1 (stereo not drawn) [Example 1, 2-(4-Hydroxyphenyl)-1-(4-(2-(pyrrolidin-1-yl)ethoxy)phenyl)-2,3-dihydro-1H-inden-5-ol]	40 to 65%	≤ 1 nM	++ (++ = a single % value ≧50%)	≤ 1 nM	60 to 85%	≤ 1 nM
C[C@@H]1CCN([C@@H](C)COc2ccc(C3c4ccc(O)cc4CC3c3ccc(O)cc3)cc2)C1 (stereo partly drawn) [Example 2, 2-(4-Hydroxyphenyl)-1-(4-((S)-2-((R)-3-methylpyrrolidin-1-yl)propoxy)phenyl)-2,3-dihydro-1H-inden-5-ol]	≥ 65%	≤ 1 nM	++ (++ = a single % value ≧50%)	≤ 1 nM	≥ 85%	≤ 1 nM
C[C@@H]1CCN([C@@H](C)COc2ccc(C3c4ccc(O)cc4CC3c3cccc(O)c3)cc2)C1 (stereo partly drawn) [Example 3, 2-(3-Hydroxyphenyl)-1-(4-((S)-2-((R)-3-methylpyrrolidin-1-yl)propoxy)phenyl)-2,3-dihydro-1H-inden-5-ol]	≥ 65%	≤ 1 nM	++ (++ = a single % value ≧50%)	≤ 1 nM	≥ 85%	≤ 1 nM
C[C@@H]1CCN([C@@H](C)COc2ccc(C3c4ccc(O)cc4CC3c3ccccc3)cc2)C1 (stereo partly drawn) [Example 4, 1-(4-((S)-2-((R)-3-Methylpyrrolidin-1-yl)propoxy)phenyl)-2-phenyl-2,3-dihydro-1H-inden-5-ol]	≥ 65%	≤ 1 nM	++ (++ = a single % value ≧50%)	≤ 1 nM	≥ 85%	≤ 1 nM
C[C@@H]1CCN([C@@H](C)COc2ccc(C3c4ccc(O)c(F)c4CC3c3ccc(O)cc3)cc2)C1 (stereo partly drawn) [Example 5, 4-Fluoro-2-(4-hydroxyphenyl)-1-(4-((S)-2-((R)-3-methylpyrrolidin-1-yl)propoxy)phenyl)-2,3-dihydro-1H-inden-5-ol]	–	–	++ (++ = a single % value ≧50%)	≤ 1 nM	≥ 85%	≤ 1 nM
C[C@@H]1CCN([C@@H](C)COc2ccc(C3c4ccc(O)cc4CC3c3ccc(F)cc3)cc2)C1 (stereo partly drawn) [Example 6, 2-(4-Fluorophenyl)-1-(4-((S)-2-((R)-3-methylpyrrolidin-1-yl)propoxy)phenyl)-2,3-dihydro-1H-inden-5-ol]	–	–	++ (++ = a single % value ≧50%)	> 1 nM	≥ 85%	≤ 1 nM
Oc1ccc2c(c1)CC(c1ccccc1)C2c1ccc(OCCN2CCCC2)cc1 (stereo not drawn) [Example 7, 2-Phenyl-1-(4-(2-(pyrrolidin-1-yl)ethoxy)phenyl)-2,3-dihydro-1H-inden-5-ol]	–	–	++ (++ = a single % value ≧50%)	> 1 nM	60 to 85%	≤ 1 nM
